ChEMBL document CHEMBL3885881, “DrugMatrix”

Species: Rattus norvegicus
Experiment: DrugMatrix - Regimen: Daily Repeat
Assay type: toxicity, organism-based, Sprague-Dawley
Set-up: regimen Daily Repeat, gender Male, age 6-8 weeks
Details: in vivo, po, route oral GAVAGE, vehicle .5 % CMC; for ABSOLUTE BASOPHIL / ABSOLUTE EOSINOPHIL / ABSOLUTE LYMPHOCYTE / ABSOLUTE MONOCYTE / ABSOLUTE SEGMENTED NEUTROPHIL / BASOPHIL / EOSINOPHIL / ERYTHROCYTE COUNT / HEMATOCRIT / HEMOGLOBIN / LEUKOCYTE COUNT / LYMPHOCYTE / MEAN CORPUSCULAR HEMOGLOBIN / MEAN CORPUSCULAR HEMOGLOBIN CONCENTRATION / MEAN CORPUSCULAR VOLUME / MONOCYTE / NEUTROPHIL / NUCLEATED RED BLOOD CELLS / PLATELET COUNT: tissue Blood; for ALANINE AMINOTRANSFERASE / ALBUMIN / ALKALINE PHOSPHATASE / ASPARTATE AMINOTRANSFERASE / BLOOD UREA NITROGEN / CARBON DIOXIDE / CHLORIDE / CHOLESTEROL / CREATINE PHOSPHOKINASE / CREATININE / GLUCOSE / LACTATE DEHYDROGENASE / LIPASE / PHOSPHORUS / POTASSIUM / SODIUM / TOTAL BILIRUBIN / TOTAL PROTEIN / URIC ACID: tissue Plasma
[1] = 0 mg/kg, 72 h, dose level Control, time 3 day
[2] = 0 mg/kg, 120 h, dose level Control, time 5 day
[3] = 580 mg/kg, 72 h, dose level High, time 3 day

## CN1C(=O)COc2c(C(=O)NC3CN4CCC3CC4)cc(Cl)cc21 (centres undefined) [AZASETRON]
[1]
  ABSOLUTE BASOPHIL: 0 CELLS/uL
  ABSOLUTE EOSINOPHIL: 47.67 CELLS/uL
  ABSOLUTE LYMPHOCYTE: 15937.67 CELLS/uL
  ABSOLUTE MONOCYTE: 138.33 CELLS/uL
  ABSOLUTE SEGMENTED NEUTROPHIL: 1443 CELLS/uL
  BASOPHIL: 0%
  EOSINOPHIL: 0.33%
  ERYTHROCYTE COUNT: 5.45 x10E6/uL
  HEMATOCRIT: 34.43%
  HEMOGLOBIN: 13.38 G/DL
  LEUKOCYTE COUNT: 17.57 x10E3/uL
  LYMPHOCYTE: 90.33%
  MEAN CORPUSCULAR HEMOGLOBIN: 24.6 pg
  MEAN CORPUSCULAR HEMOGLOBIN CONCENTRATION: 38.88 G/DL
  MEAN CORPUSCULAR VOLUME: 63.27 fL
  MONOCYTE: 0.83%
  NEUTROPHIL: 8.5%
  NUCLEATED RED BLOOD CELLS: 0 /100WBC
  PLATELET COUNT: 1298 x10E3/uL
  ALANINE AMINOTRANSFERASE: 47.67 u/L
  ALBUMIN: 4.18 G/DL
  ALKALINE PHOSPHATASE: 398.5 u/L
  ASPARTATE AMINOTRANSFERASE: 93.17 u/L
  BLOOD UREA NITROGEN: 16 mg/dL
  CARBON DIOXIDE: 29.17 mmol/L
  CHLORIDE: 98.17 MEQ/L
  CHOLESTEROL: 68.83 mg/dL
  CREATINE PHOSPHOKINASE: 467.33 u/L
  CREATININE: 0.14 mg/dL
  GLUCOSE: 151.67 mg/dL
  LACTATE DEHYDROGENASE: 597.5 u/L
  LIPASE: 9.33 u/L
  PHOSPHORUS: 11.97 mg/dL
  POTASSIUM: 6.43 MEQ/L
  SODIUM: 140.68 MEQ/L
  TOTAL BILIRUBIN: 0.18 mg/dL
  TOTAL PROTEIN: 5.82 G/DL
  URIC ACID: 1.48 mg/dL
[2]
  ABSOLUTE BASOPHIL: 0 CELLS/uL
  ABSOLUTE EOSINOPHIL: 31 CELLS/uL
  ABSOLUTE LYMPHOCYTE: 14327.83 CELLS/uL
  ABSOLUTE MONOCYTE: 102.83 CELLS/uL
  ABSOLUTE SEGMENTED NEUTROPHIL: 1321.67 CELLS/uL
  BASOPHIL: 0%
  EOSINOPHIL: 0.17%
  ERYTHROCYTE COUNT: 5.79 x10E6/uL
  HEMATOCRIT: 36.1%
  HEMOGLOBIN: 14.15 G/DL
  LEUKOCYTE COUNT: 15.78 x10E3/uL
  LYMPHOCYTE: 90.5%
  MEAN CORPUSCULAR HEMOGLOBIN: 24.48 pg
  MEAN CORPUSCULAR HEMOGLOBIN CONCENTRATION: 39.22 G/DL
  MEAN CORPUSCULAR VOLUME: 62.4 fL
  MONOCYTE: 0.67%
  NEUTROPHIL: 8.67%
  NUCLEATED RED BLOOD CELLS: 0.17 /100WBC
  PLATELET COUNT: 1211.67 x10E3/uL
  ALANINE AMINOTRANSFERASE: 49 u/L
  ALBUMIN: 4.27 G/DL
  ALKALINE PHOSPHATASE: 356.67 u/L
  ASPARTATE AMINOTRANSFERASE: 90.17 u/L
  BLOOD UREA NITROGEN: 20.5 mg/dL
  CARBON DIOXIDE: 29.17 mmol/L
  CHLORIDE: 98 MEQ/L
  CHOLESTEROL: 69.83 mg/dL
  CREATINE PHOSPHOKINASE: 312 u/L
  CREATININE: 0.21 mg/dL
  GLUCOSE: 149.83 mg/dL
  LACTATE DEHYDROGENASE: 322 u/L
  LIPASE: 10 u/L
  PHOSPHORUS: 12 mg/dL
  POTASSIUM: 6.75 MEQ/L
  SODIUM: 142.8 MEQ/L
  TOTAL BILIRUBIN: 0.17 mg/dL
  TOTAL PROTEIN: 6.1 G/DL
  URIC ACID: 1.68 mg/dL
[3]
  ABSOLUTE BASOPHIL: 0 CELLS/uL
  ABSOLUTE EOSINOPHIL: 0 CELLS/uL
  ABSOLUTE LYMPHOCYTE: 13751.33 CELLS/uL
  ABSOLUTE MONOCYTE: 160.33 CELLS/uL
  ABSOLUTE SEGMENTED NEUTROPHIL: 1088.33 CELLS/uL
  BASOPHIL: 0%
  EOSINOPHIL: 0%
  ERYTHROCYTE COUNT: 6.01 x10E6/uL
  HEMATOCRIT: 37.33%
  HEMOGLOBIN: 14.57 G/DL
  LEUKOCYTE COUNT: 15 x10E3/uL
  LYMPHOCYTE: 91.67%
  MEAN CORPUSCULAR HEMOGLOBIN: 24.27 pg
  MEAN CORPUSCULAR HEMOGLOBIN CONCENTRATION: 39.03 G/DL
  MEAN CORPUSCULAR VOLUME: 62.13 fL
  MONOCYTE: 1%
  NEUTROPHIL: 7.33%
  NUCLEATED RED BLOOD CELLS: 0 /100WBC
  PLATELET COUNT: 1244 x10E3/uL
  ALANINE AMINOTRANSFERASE: 64.33 u/L
  ALBUMIN: 4.27 G/DL
  ALKALINE PHOSPHATASE: 372.33 u/L
  ASPARTATE AMINOTRANSFERASE: 96.67 u/L
  BLOOD UREA NITROGEN: 17.33 mg/dL
  CARBON DIOXIDE: 26.67 mmol/L
  CHLORIDE: 99.33 MEQ/L
  CHOLESTEROL: 72.67 mg/dL
  CREATINE PHOSPHOKINASE: 527.67 u/L
  CREATININE: 0.25 mg/dL
  GLUCOSE: 150 mg/dL
  LACTATE DEHYDROGENASE: 877 u/L
  LIPASE: 9.67 u/L
  PHOSPHORUS: 11.3 mg/dL
  POTASSIUM: 6.57 MEQ/L
  SODIUM: 141.63 MEQ/L
  TOTAL BILIRUBIN: 0.23 mg/dL
  TOTAL PROTEIN: 6 G/DL
  URIC ACID: 1.73 mg/dL
